In patent publication US11123337B2, “4-methylsulfonyl-substituted piperidine urea compounds” (MYOKARDIA, INC., priority 2015, dated 2021):

Target: bovine cardiac myosin (Bos taurus, UniProt Q9BE39)
Test: Myosin activation assay (PK/LDH-coupled ATPase, bovine cardiac myofibrils)
Assay type: biochemical
Conditions: AC20 = concentration at which total response is increased by twenty percent
Summary of the method: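 Skinned bovine cardiac myofibrils (1 mg/mL) in PIPES/MgCl2 buffer pH 6.8 at free Ca2+ giving ~50% (pCa ~6) or <5% (pCa 10) activation, with 50 μM ATP and 3.3% DMSO. ATPase rate from NADH absorbance at 340 nm (PK/LDH coupling) over 15 min at ambient temperature. AC20/AC50 from a four-parameter fit of DMSO-normalised rates.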

bovine cardiac myosin, sequence (Q9BE39 whole entry): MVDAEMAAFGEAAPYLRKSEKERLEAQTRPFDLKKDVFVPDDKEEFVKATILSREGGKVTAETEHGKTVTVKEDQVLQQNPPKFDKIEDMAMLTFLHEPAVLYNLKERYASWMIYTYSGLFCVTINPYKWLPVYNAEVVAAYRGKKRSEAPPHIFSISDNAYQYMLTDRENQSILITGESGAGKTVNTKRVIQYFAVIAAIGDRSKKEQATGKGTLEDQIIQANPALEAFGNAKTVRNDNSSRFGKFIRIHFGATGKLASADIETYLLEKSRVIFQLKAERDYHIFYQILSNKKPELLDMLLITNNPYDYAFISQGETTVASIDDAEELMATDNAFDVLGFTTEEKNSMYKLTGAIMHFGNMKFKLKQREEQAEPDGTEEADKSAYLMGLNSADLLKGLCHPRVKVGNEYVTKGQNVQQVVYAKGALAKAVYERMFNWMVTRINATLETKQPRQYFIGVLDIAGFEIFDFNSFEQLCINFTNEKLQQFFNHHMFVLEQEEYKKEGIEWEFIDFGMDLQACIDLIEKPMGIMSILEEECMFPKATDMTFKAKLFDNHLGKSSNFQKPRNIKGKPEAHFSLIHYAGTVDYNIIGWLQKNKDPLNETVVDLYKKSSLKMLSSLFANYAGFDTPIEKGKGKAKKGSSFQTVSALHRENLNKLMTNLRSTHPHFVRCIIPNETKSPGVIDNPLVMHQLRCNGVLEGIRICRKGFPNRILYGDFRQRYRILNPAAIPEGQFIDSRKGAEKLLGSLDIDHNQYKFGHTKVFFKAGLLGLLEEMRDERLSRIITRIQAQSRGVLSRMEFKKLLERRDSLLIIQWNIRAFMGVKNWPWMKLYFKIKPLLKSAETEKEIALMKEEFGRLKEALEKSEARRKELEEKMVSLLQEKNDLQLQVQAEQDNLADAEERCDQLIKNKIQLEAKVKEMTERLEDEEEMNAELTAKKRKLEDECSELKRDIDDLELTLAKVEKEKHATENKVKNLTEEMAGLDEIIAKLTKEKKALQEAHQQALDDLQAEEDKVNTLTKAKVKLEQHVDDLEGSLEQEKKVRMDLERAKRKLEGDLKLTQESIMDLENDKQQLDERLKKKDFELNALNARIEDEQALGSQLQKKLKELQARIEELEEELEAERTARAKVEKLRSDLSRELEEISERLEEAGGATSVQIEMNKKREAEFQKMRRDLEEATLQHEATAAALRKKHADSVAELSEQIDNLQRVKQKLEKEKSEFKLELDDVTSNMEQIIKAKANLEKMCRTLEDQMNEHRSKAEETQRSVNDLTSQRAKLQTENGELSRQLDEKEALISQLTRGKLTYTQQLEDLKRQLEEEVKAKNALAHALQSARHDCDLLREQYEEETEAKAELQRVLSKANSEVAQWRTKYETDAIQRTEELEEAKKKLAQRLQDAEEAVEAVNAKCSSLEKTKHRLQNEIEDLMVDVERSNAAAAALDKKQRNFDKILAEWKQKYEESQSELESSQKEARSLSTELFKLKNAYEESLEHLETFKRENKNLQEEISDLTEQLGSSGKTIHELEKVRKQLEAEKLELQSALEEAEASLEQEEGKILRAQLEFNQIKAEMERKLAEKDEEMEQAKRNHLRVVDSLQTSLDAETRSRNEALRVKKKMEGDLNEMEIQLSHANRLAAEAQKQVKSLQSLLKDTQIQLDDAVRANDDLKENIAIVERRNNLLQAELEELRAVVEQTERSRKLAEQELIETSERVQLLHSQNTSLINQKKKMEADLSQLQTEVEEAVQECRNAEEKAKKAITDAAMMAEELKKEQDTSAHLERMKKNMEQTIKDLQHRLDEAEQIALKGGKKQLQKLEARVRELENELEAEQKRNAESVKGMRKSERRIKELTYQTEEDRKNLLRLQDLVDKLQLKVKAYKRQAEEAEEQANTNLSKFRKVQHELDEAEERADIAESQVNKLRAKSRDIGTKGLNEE
bovine cardiac myosin, sequence (P85100 whole entry partner): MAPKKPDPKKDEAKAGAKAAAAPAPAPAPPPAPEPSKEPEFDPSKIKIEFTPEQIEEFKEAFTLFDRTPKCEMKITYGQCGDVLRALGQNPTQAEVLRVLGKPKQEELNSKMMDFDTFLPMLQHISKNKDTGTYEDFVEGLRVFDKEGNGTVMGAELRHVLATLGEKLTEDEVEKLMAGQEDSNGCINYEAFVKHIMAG
bovine cardiac myosin, sequence (Q3SZE5 whole entry partner): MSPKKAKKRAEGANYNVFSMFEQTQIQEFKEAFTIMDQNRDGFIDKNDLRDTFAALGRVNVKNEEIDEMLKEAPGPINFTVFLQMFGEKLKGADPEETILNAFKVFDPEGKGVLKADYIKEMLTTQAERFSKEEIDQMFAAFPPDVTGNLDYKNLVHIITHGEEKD

SMILES	Myosin Activation (AC20)
O=C(Nc1ccnnc1)N1CCC(C2(S(=O)(=O)c3ccc(OC(F)(F)F)cc3)CC2)CC1 [Compound 205, N-(pyridazin-4-yl)-4-(1-((4-(trifluoromethoxy)phenyl)sulfonyl)cyclopropyl)piperidine-1-carboxamide]	+++ (+++ represents myosin activation value AC20 < 2 μM)
CC(C)(C1CCN(C(=O)Nc2cnns2)CC1)S(=O)(=O)c1ccc(C(F)(F)F)cc1 [Compound 182, N-(1,2,3-thiadiazol-5-yl)-4-(2-((4-(trifluoromethyl)phenyl)sulfonyl)propan-2-yl)piperidine-1-carboxamide]	+++ (+++ represents myosin activation value AC20 < 2 μM)
CC(F)(C1CCN(C(=O)Nc2ccon2)CC1)S(=O)(=O)c1cccc(C#N)c1 (stereo not drawn) [Compound 282, 4-(1-((3-cyanophenyl)sulfonyl)-1-fluoroethyl)-N-(isoxazol-3-yl)piperidine-1-carboxamide]	++ (++ represents myosin activation value AC20 from 2 μM-5 μM)
Cn1nccc1-c1ccc(S(=O)(=O)C(F)(F)C2CCN(C(=O)Nc3ccnnc3)CC2)cc1 [Compound 58, 4-(difluoro((4-(1-methyl-1H-pyrazol-5-yl)phenyl)sulfonyl)methyl)-N-(pyridazin-4-yl)piperidine-1-carboxamide]	+ (+ represents myosin activation value AC20 > 5 μM)
O=C(Nc1ccnnc1)N1CCC(C2(S(=O)(=O)c3cccc(F)c3)CCC2)CC1 [Compound 43, 4-(1-((3-fluorophenyl)sulfonyl)cyclobutyl)-N-(pyridazin-4-yl)piperidine-1-carboxamide]	+++ (+++ represents myosin activation value AC20 < 2 μM)
CC(F)(C1CCN(C(=O)Nc2ccnnc2)CC1)S(=O)(=O)c1cc(F)cc(F)c1 (stereo not drawn) [Compound 275, 4-(1-((3,5-difluorophenyl)sulfonyl)-1-fluoroethyl)-N-(pyridazin-4-yl)piperidine-1-carboxamide]	+++ (+++ represents myosin activation value AC20 < 2 μM)
CC(C)(C1CCN(C(=O)Nc2cnns2)CC1)S(=O)(=O)c1cccc(F)c1 [Compound 211, 4-(2-((3-fluorophenyl)sulfonyl)propan-2-yl)-N-(1,2,3-thiadiazol-5-yl)piperidine-1-carboxamide]	+++ (+++ represents myosin activation value AC20 < 2 μM)
CC(F)(C1CCN(C(=O)Nc2ccnnc2)CC1)S(=O)(=O)c1ccc(OC(F)F)nc1 (stereo not drawn) [Compound 14, 4-(1-((6-(Difluoromethoxy)pyridin-3-yl)sulfonyl)-1-fluoroethyl)-N-(pyridazin-4-yl)piperidine-1-carboxamide]	+++ (+++ represents myosin activation value AC20 < 2 μM)
CC(F)(C1CCN(C(=O)Nc2ccc(F)nc2)CC1)S(=O)(=O)c1cccc(C#N)c1 (stereo not drawn) [Compound 241, 4-(1-((3-cyanophenyl)sulfonyl)-1-fluoroethyl)-N-(6-fluoropyridin-3-yl)piperidine-1-carboxamide]	+ (+ represents myosin activation value AC20 > 5 μM)
C[C@](F)(C1CCN(C(=O)Nc2ccon2)CC1)S(=O)(=O)c1ccc(C(F)(F)F)nc1 [Compound 310, (R)-4-(1-fluoro-1-((6-(trifluoromethyl)pyridin-3-yl)sulfonyl)ethyl)-N-(isoxazol-3-yl)piperidine-1-carboxamide]	++ (++ represents myosin activation value AC20 from 2 μM-5 μM)
Cc1ccc(S(=O)(=O)CC2CCN(C(=O)Nc3ccncc3)CC2)cc1 [Compound 38, N-(pyridin-4-yl)-4-(tosylmethyl)piperidine-1-carboxamide]	+ (+ represents myosin activation value AC20 > 5 μM)
Cn1nc(C(F)F)cc1S(=O)(=O)C(C)(C)C1CCN(C(=O)Nc2ccnc(F)c2)CC1 [Compound 105, 4-(2-((3-(difluoromethyl)-1-methyl-1H-pyrazol-5-yl)sulfonyl)propan-2-yl)-N-(2-fluoropyridin-4-yl)piperidine-1-carboxamide]	+++ (+++ represents myosin activation value AC20 < 2 μM)
